Reference: patent US12077503B2, “Substituted cyclic amides and their use as herbicides” (FMC CORPORATION, priority 2015, dated 2024)

Legend:
Assay type in all cases: in vivo
[1] = tested on: giant foxtail (Setaria faberii); assay: Test A preemergence; details: for Plant response rating, Foxtail, Giant: 125 g ai/ha; for Foxtail, Giant plant response rating (0 to 100 scale, 0 is no effect, 100 is complete control): visual injury approx. 10 d
Source text: (§1) Seeds of plant species selected from barnyardgrass (Echinochloa crus-galli), Kochia (Kochia scoparia), ragweed (common ragweed, Ambrosia elatior), ryegrass, Italian (Italian ryegrass, Lolium multiflorum), crabgrass, large (Digitaria sanguinalis), giant foxtail (Setaria faberii), green foxtail (Setaria viridis), morningglory (Ipomoea spp.), pigweed (Amaranthus retroflexus), velvetleaf (Abutilon theophrasti), wheat (Triticum aestivum), and corn (Zea mays) were planted into a blend of loam soil and sand and treated preemergence with a directed soil spray using test chemicals formulated in anon-phytotoxic solvent mixture which included a surfactant.
(§2) At the same time, plants selected from these crop and weed species and also blackgrass (Alopecurus myosuroides), and Galium (catchweed bedstraw, Galium aparine) were planted in pots containing the same blend of loam soil and sand and treated with postemergence applications of test chemicals formulated in the same manner. Plants ranged in height from 2 to 10 cm and were in the one- to two-leaf stage for the postemergence treatment. Treated plants and untreated controls were maintained in a greenhouse for approximately 10 d, after which time all treated plants were compared to untreated controls and visually evaluated for injury. Plant response ratings, summarized in Table A, are based on a 0 to 100 scale where 0 is no effect and 100 is complete control. A dash (-) response means no test result.

[2] = tested on: pigweed (Amaranthus retroflexus); assay: Test A preemergence; details: for Plant response rating, Pigweed: 125 g ai/ha; for Pigweed plant response rating (0 to 100 scale, 0 is no effect, 100 is complete control): visual injury approx. 10 d
Source text: as §1, §2

[3] = tested on: barnyardgrass (Echinochloa crus-galli); assay: Test A preemergence; details: for Plant response rating, Barnyardgrass: 125 g ai/ha; for Barnyardgrass plant response rating (0 to 100 scale, 0 is no effect, 100 is complete control): visual injury approx. 10 d
Source text: as §1, §2

[4] = tested on: ragweed (common ragweed, Ambrosia elatior); assay: Test A preemergence; details: for Plant response rating, Ragweed: 125 g ai/ha; for Ragweed plant response rating (0 to 100 scale, 0 is no effect, 100 is complete control): visual injury approx. 10 d
Source text: as §1, §2

Kochia (Kochia scoparia) [5] = assay: Test A preemergence; details: for Plant response rating, Kochia: 125 g ai/ha; for Kochia plant response rating (0 to 100 scale, 0 is no effect, 100 is complete control): visual injury approx. 10 d
Source text: as §1, §2

[6] = tested on: ryegrass, Italian (Italian ryegrass, Lolium multiflorum); assay: Test A preemergence; details: for Plant response rating, Ryegrass, Italian: 125 g ai/ha; for Ryegrass, Italian plant response rating (0 to 100 scale, 0 is no effect, 100 is complete control): visual injury approx. 10 d
Source text: as §1, §2

[7] = tested on: giant foxtail (Setaria faberii); assay: Test A postemergence
Source text: as §1, §2

[8] = tested on: blackgrass (Alopecurus myosuroides); assay: Test A postemergence
Source text: as §1, §2

[9] = tested on: pigweed (Amaranthus retroflexus); assay: Test A postemergence
Source text: as §1, §2

[10] = tested on: barnyardgrass (Echinochloa crus-galli); assay: Test A postemergence
Source text: as §1, §2

[11] = tested on: ragweed (common ragweed, Ambrosia elatior); assay: Test A postemergence
Source text: as §1, §2

[12] = tested on: wheat (Triticum aestivum); assay: Test A postemergence
Source text: as §1, §2

Kochia (Kochia scoparia) [13] = assay: Test A postemergence
Source text: as §1, §2

[14] = tested on: Galium (catchweed bedstraw, Galium aparine); assay: Test A postemergence
Source text: as §1, §2

corn (Zea mays) = assay: Test A postemergence
Source text: as §1, §2

[15] = tested on: ryegrass, Italian (Italian ryegrass, Lolium multiflorum); assay: Test A postemergence
Source text: as §1, §2

[16] = preemergence, 0 to 100 scale (0 no effect, 100 complete control)
[17] = Preemergence, 500 g ai/ha, 0 is no effect, 100 is complete control
[18] = 125 g ai/ha, postemergence, visual injury rating on 0 to 100 scale (0 no effect, 100 complete control), approx. 10 d
[19] = 500 g ai/ha, postemergence, 0 to 100 scale, 0 no effect, 100 complete control
[20] = Postemergence, 125 g ai/ha, visual injury, 0 to 100 scale (0 no effect, 100 complete control), approx. 10 d
[21] = Preemergence, visual injury after approximately 10 d, 0 to 100 scale where 0 is no effect and 100 is complete control
[22] = 125 g ai/ha, postemergence, visual rating after approx. 10 d, 0 to 100 scale (0 no effect, 100 complete control)
[23] = Postemergence, 500 g ai/ha, 0 to 100 scale where 0 is no effect and 100 is complete control

In the case of `O=C1NCC(c2cccc(O)c2)C1C(=O)Nc1cccc(F)c1F` (racemic) [Compound 384], the “Plant response rating, Foxtail, Giant” value [1, 16] is reported as 0, the “Foxtail, Giant plant response rating (0 to 100 scale)” value [1, 17] is reported as 0 and the “Plant response rating, Pigweed” value [2, 16] is reported as 0. The “Pigweed plant response rating (0 to 100 scale)” value [2, 17] was 0, the “Plant response rating, Barnyardgrass” value [3, 16] was 0 and the “Barnyardgrass plant response rating (0 to 100 scale)” value [3, 17] was 0. The “Plant response rating, Ragweed” value [4, 16] was 0, the “Ragweed plant response rating (0 to 100 scale)” value [4, 17] was 0 and the “Plant response rating, Kochia” value (Kochia (Kochia scoparia) [5]; [16]) was 0. The “Kochia plant response rating (0 to 100 scale)” value (Kochia (Kochia scoparia) [5]; [17]) was 0, the “Plant response rating, Ryegrass, Italian” value [6, 16] was 0 and the “Ryegrass, Italian plant response rating (0 to 100 scale)” value [6, 17] was 0. The “Foxtail, Giant plant response rating” value [7, 18] was 0, the “Plant response rating, Foxtail, Giant” value [7, 19] was 0 and the “Plant response rating, Blackgrass” value [8, 19] was 0. The “Plant response rating, Blackgrass” value [8, 20] was 0, the “Pigweed plant response rating” value [9, 18] was 0 and the “Plant response rating, Pigweed” value [9, 19] was 0. For the same compound, the “Plant response rating, Barnyardgrass” value [10, 19] was 0, the “Plant response rating, Barnyardgrass” value [10, 20] was 0 and the “Ragweed plant response rating” value [11, 18] was 0. For the same compound, the “Plant response rating, Ragweed” value [11, 19] was 0, the “Wheat plant response rating” value [12, 18] was 0 and the “Plant response rating, Wheat” value [12, 19] was 0. For the same compound, the “Kochia plant response rating” value (Kochia (Kochia scoparia) [13]; [18]) was 0, the “Plant response rating, Kochia” value (Kochia (Kochia scoparia) [13]; [19]) was 0 and the “Galium plant response rating” value [14, 18] was 0. The “Plant response rating, Galium” value [14, 19] was 0, the “Corn plant response rating” value (corn (Zea mays); [18]) was 0 and the “Plant response rating, Corn” value (corn (Zea mays); [19]) was 0. The “Ryegrass, Italian plant response rating” value [15, 18] was 0 and the “Plant response rating, Ryegrass, Italian” value [15, 19] was 0.
With `CN1CC(c2ccc(Br)cc2)C(C(=O)Nc2ccc(F)cc2F)C1=O` (stereo not drawn) [Compound 566] the “Plant response rating, Foxtail, Giant” value [1, 21] was 90, the “Foxtail, Giant plant response rating (0 to 100 scale, 0 is no effect, 100 is complete control)” value ([1]; Preemergence, 500 g ai/ha) was 100 and the “Plant response rating, Pigweed” value [2, 21] was 80. The “Pigweed plant response rating (0 to 100 scale, 0 is no effect, 100 is complete control)” value ([2]; Preemergence, 500 g ai/ha) was 90, the “Plant response rating, Barnyardgrass” value [3, 21] was 90 and the “Barnyardgrass plant response rating (0 to 100 scale, 0 is no effect, 100 is complete control)” value ([3]; Preemergence, 500 g ai/ha) was 100. The “Plant response rating, Ragweed” value [4, 21] was 60, the “Ragweed plant response rating (0 to 100 scale, 0 is no effect, 100 is complete control)” value ([4]; Preemergence, 500 g ai/ha) was 90 and the “Plant response rating, Kochia” value (Kochia (Kochia scoparia) [5]; [21]) was 70. For the same compound, the “Kochia plant response rating (0 to 100 scale, 0 is no effect, 100 is complete control)” value (Kochia (Kochia scoparia) [5]; Preemergence, 500 g ai/ha) was 80, the “Plant response rating, Ryegrass, Italian” value [6, 21] was 20 and the “Ryegrass, Italian plant response rating (0 to 100 scale, 0 is no effect, 100 is complete control)” value ([6]; Preemergence, 500 g ai/ha) was 70. For the same compound, the “Plant response rating, Foxtail, Giant” value [7, 22] was 90, the “Plant response rating, Foxtail, Giant” value [7, 23] was 90 and the “Plant response rating, Blackgrass” value [8, 22] was 20. The “Plant response rating, Blackgrass” value [8, 23] was 70, the “Plant response rating, Pigweed” value [9, 22] was 30 and the “Plant response rating, Pigweed” value [9, 23] was 60. For the same compound, the “Plant response rating, Barnyardgrass” value [10, 22] was 90, the “Plant response rating, Barnyardgrass” value [10, 23] was 90 and the “Plant response rating, Ragweed” value [11, 22] was 0. The “Plant response rating, Ragweed” value [11, 23] was 40, the “Plant response rating, Wheat” value [12, 22] was 0 and the “Plant response rating, Wheat” value [12, 23] was 40. For the same compound, the “Plant response rating, Kochia” value (Kochia (Kochia scoparia) [13]; [22]) was 80, the “Plant response rating, Kochia” value (Kochia (Kochia scoparia) [13]; [23]) was 80 and the “Plant response rating, Galium” value [14, 22] was 60. For the same compound, the “Plant response rating, Galium” value [14, 23] was 80, the “Plant response rating, Corn” value (corn (Zea mays); [22]) was 0 and the “Plant response rating, Corn” value (corn (Zea mays); [23]) was 40. The “Plant response rating, Ryegrass, Italian” value [15, 22] was 30 and the “Plant response rating, Ryegrass, Italian” value [15, 23] was 60.
For `CN1CC(c2cccc(C(F)(F)F)c2)C(C(=O)Nc2ccccc2)C1=O` (stereo not drawn) [Compound 577], the “Plant response rating, Foxtail, Giant” value [1, 21] was 90, the “Foxtail, Giant plant response rating (0 to 100 scale, 0 is no effect, 100 is complete control)” value ([1]; Preemergence, 500 g ai/ha) was 100 and the “Plant response rating, Pigweed” value [2, 21] was 0. The “Pigweed plant response rating (0 to 100 scale, 0 is no effect, 100 is complete control)” value ([2]; Preemergence, 500 g ai/ha) was 40, the “Plant response rating, Barnyardgrass” value [3, 21] was 90 and the “Barnyardgrass plant response rating (0 to 100 scale, 0 is no effect, 100 is complete control)” value ([3]; Preemergence, 500 g ai/ha) was 100. For the same compound, the “Plant response rating, Ragweed” value [4, 21] was 0, the “Ragweed plant response rating (0 to 100 scale, 0 is no effect, 100 is complete control)” value ([4]; Preemergence, 500 g ai/ha) was 40 and the “Plant response rating, Kochia” value (Kochia (Kochia scoparia) [5]; [21]) was 50. The “Kochia plant response rating (0 to 100 scale, 0 is no effect, 100 is complete control)” value (Kochia (Kochia scoparia) [5]; Preemergence, 500 g ai/ha) was 70, the “Plant response rating, Ryegrass, Italian” value [6, 21] was 40 and the “Ryegrass, Italian plant response rating (0 to 100 scale, 0 is no effect, 100 is complete control)” value ([6]; Preemergence, 500 g ai/ha) was 80. The “Plant response rating, Foxtail, Giant” value [7, 22] was 90, the “Plant response rating, Foxtail, Giant” value [7, 23] was 90 and the “Plant response rating, Blackgrass” value [8, 22] was 70. For the same compound, the “Plant response rating, Blackgrass” value [8, 23] was 80, the “Plant response rating, Pigweed” value [9, 22] was 0 and the “Plant response rating, Pigweed” value [9, 23] was 0. For the same compound, the “Plant response rating, Barnyardgrass” value [10, 22] was 90, the “Plant response rating, Barnyardgrass” value [10, 23] was 100 and the “Plant response rating, Ragweed” value [11, 22] was 0. For the same compound, the “Plant response rating, Ragweed” value [11, 23] was 30, the “Plant response rating, Wheat” value [12, 22] was 40 and the “Plant response rating, Wheat” value [12, 23] was 70. For the same compound, the “Plant response rating, Kochia” value (Kochia (Kochia scoparia) [13]; [22]) was 0, the “Plant response rating, Kochia” value (Kochia (Kochia scoparia) [13]; [23]) was 40 and the “Plant response rating, Galium” value [14, 22] was 30. The “Plant response rating, Galium” value [14, 23] was 50, the “Plant response rating, Corn” value (corn (Zea mays); [22]) was 60 and the “Plant response rating, Corn” value (corn (Zea mays); [23]) was 80. The “Plant response rating, Ryegrass, Italian” value [15, 22] was 30 and the “Plant response rating, Ryegrass, Italian” value [15, 23] was 30.
